Here are results for 4 molecules from patent US20020183362A1, “2-Fluorobenzenesulfonyl compounds for the treatment of inflammation” (Pharmacia Corporation, priority 2000, published 2002).

A word on the IC50: it is the concentration that gives 50% inhibition. A word on the melting point: it is the temperature, or range, at which the solid turns liquid.

Some results are limits rather than exact numbers.

The target in data set [1] is T1, Human COX-2 (Homo sapiens, UniProt P35354).
T1 construct: A 2.0 kb fragment containing the coding region of either human or murine COX-1 or human or murine COX-2; made in house; host or cells: SF9 insect cells (baculovirus, transfer vector pVL1393)
T1 sequence (P35354 18-604): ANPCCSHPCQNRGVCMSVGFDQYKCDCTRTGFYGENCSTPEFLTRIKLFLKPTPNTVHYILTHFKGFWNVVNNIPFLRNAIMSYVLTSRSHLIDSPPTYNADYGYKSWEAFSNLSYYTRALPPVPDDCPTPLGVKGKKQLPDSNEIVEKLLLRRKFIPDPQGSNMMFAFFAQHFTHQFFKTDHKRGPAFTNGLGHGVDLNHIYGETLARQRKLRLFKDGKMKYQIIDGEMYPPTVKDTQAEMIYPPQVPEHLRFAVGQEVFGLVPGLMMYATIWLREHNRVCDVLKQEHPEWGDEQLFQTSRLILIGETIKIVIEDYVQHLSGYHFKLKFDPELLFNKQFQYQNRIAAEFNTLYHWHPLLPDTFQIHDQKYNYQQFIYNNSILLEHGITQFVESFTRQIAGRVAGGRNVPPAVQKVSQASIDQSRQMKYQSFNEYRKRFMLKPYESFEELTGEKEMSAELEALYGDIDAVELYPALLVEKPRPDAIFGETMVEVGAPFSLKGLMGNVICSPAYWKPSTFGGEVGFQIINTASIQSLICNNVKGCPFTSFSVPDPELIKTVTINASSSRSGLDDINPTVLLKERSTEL
The experiment in a line: Assay for COX-1 and COX-2 activity (PGE2 ELISA, recombinant enzyme), COX-2. Type of data set: biochemical. The conditions noted are these: Table I; pre-incubated 10-20 minutes, arachidonic acid 10 μM, stopped after ten minutes, pH 8.0. Here is the method: The COX-2 inhibition activity of the compounds of this invention illustrated in the Examples was determined by the following methods.
(§1) Recombinant COX-1 and COX-2 were prepared as described by Gierse et al, [J. Biochem., 305, 479-84 (1995)]. A 2.0 kb fragment containing the coding region of either human or murine COX-1 or human or murine COX-2 was cloned into a BamH1 site of the baculovirus transfer vector pVL1393 (Invitrogen) to generate the baculovirus transfer vectors for COX-1 and COX-2 in a manner similar to the method of D. R. O'Reilly et al (Baculovirus Expression Vectors: A Laboratory Manual (1992)). Recombinant baculoviruses were isolated by transfecting 4 μg of baculovirus transfer vector DNA into SF9 insect cells (2×10^8) along with 200 ng of linearized baculovirus plasmid DNA by the calcium phosphate method. See M. D. Summers and G. E. Smith, A Manual of Methods for Baculovirus Vectors and Insect Cell Culture Procedures, Texas Agric. Exp. Station Bull. 1555 (1987). Recombinant viruses were purified by three rounds of plaque purification and high titer (10^7-10^8 pfu/mL) stocks of virus were prepared. For large scale production, SF9 insect cells were infected in 10 liter fermentors (0.5×10^6/mL) with the recombinant baculovirus stock such that the multiplicity of infection was 0.1. After 72 hours the cells were centrifuged and the cell pellet homogenized in Tris/Sucrose (50 mM: 25%, pH 8.0) containing 1% 3-[(3-cholamidopropyl)dimethylammonio]-1-propanesulfonate (CHAPS). The homogenate was centrifuged at 10,000×G for 30 minutes, and the resultant supernatant was stored at −80° C. before being assayed for COX activity.
COX activity was assayed as PGE2 formed/μg protein/time using an ELISA to detect the prostaglandin released. CHAPS-solubilized insect cell membranes containing the appropriate COX enzyme were incubated in a potassium phosphate buffer (50 mM, pH 8.0) containing epinephrine, phenol, and heme with the addition of arachidonic acid (10 μM). Compounds were pre-incubated with the enzyme for 10-20 minutes prior to the addition of arachidonic acid. Any reaction between the arachidonic acid and the enzyme was stopped after ten minutes at 37° C./room temperature by transferring 40 μl of reaction mix into […] and 25 μM indomethacin. The PGE2 formed was measured by standard ELISA technology (Cayman Chemical).
(In an ELISA, binding on a coated surface is turned into a signal by an enzyme label.)

Data set [2] deals with T2, Human COX-1 (Homo sapiens, UniProt P23219).
T2 construct: A 2.0 kb fragment containing the coding region of either human or murine COX-1 or human or murine COX-2; made in house; host or cells: SF9 insect cells (baculovirus, transfer vector pVL1393)
T2 sequence (P23219 24-599): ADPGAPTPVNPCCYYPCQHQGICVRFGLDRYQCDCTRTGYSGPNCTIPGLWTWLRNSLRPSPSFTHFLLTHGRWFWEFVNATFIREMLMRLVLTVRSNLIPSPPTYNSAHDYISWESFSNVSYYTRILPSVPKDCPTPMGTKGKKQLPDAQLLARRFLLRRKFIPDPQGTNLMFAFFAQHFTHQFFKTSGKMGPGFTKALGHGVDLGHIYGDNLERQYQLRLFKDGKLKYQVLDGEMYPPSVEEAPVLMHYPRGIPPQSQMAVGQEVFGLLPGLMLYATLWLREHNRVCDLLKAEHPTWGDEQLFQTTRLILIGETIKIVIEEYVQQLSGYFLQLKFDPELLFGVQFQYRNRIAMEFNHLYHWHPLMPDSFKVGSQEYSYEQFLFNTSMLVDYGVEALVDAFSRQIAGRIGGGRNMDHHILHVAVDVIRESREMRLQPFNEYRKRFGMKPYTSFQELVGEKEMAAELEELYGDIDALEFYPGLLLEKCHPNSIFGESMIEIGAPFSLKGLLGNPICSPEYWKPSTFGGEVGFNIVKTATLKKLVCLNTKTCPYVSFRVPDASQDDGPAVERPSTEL
Put plainly: Assay for COX-1 and COX-2 activity (PGE2 ELISA, recombinant enzyme), COX-1. Type of data set: biochemical. The settings on record: Table I; pre-incubated 10-20 minutes, arachidonic acid 10 μM, stopped after ten minutes, pH 8.0. Here is the method:
as §1, with “Recombinant” for “Recombinant COX-1 and COX-2 were prepared as described by Gierse et al, [J. Biochem., 305, 479-84 (1995)]. A 2.0 kb fragment containing the coding region of either human or murine COX-1 or human or murine COX-2 was cloned into a BamH1 site of the baculovirus transfer vector pVL1393 (Invitrogen) to generate the baculovirus transfer vectors for COX-1 and COX-2 in a manner similar to the method of D. R. O'Reilly et al (Baculovirus Expression Vectors: A Laboratory Manual (1992)). Recombinant”, “1555 (1987).” left out
COX activity was assayed as PGE2 formed/μg protein/time using an ELISA to detect the prostaglandin released. CHAPS-solubilized insect cell membranes containing the appropriate COX enzyme were incubated in a potassium phosphate buffer (50 mM, pH 8.0) containing epinephrine, phenol, and heme with the addition of arachidonic acid (10 μM). Compounds were pre-incubated with the enzyme for 10-20 minutes prior to the addition of arachidonic acid. […] The PGE2 formed was measured by standard ELISA technology (Cayman Chemical).

The target of data set [3] is T1, Human COX-2. Put plainly: Fast assay for COX-1 and COX-2 activity (PGE2 ELISA), COX-2. Type of data set: biochemical. The settings on record: Table II, pre-incubated 10 minutes at 25° C., arachidonic acid 10 μM, stopped after two minutes, pH 7.5. The method, then:
as §1
COX activity was assayed as PGE2 formed/μg protein/time using an ELISA to detect the prostaglandin released. CHAPS-solubilized insect cell membranes containing the appropriate COX enzyme were incubated in a potassium phosphate buffer (0.05 M Potassium phosphate, pH 7.5, 2 μM phenol, 1 μM heme, 300 μM epinephrine) with the addition of 20 μl of 100 μM arachidonic acid (10 μM). Compounds were pre-incubated with the enzyme for 10 minutes at 25° C. prior to the addition of arachidonic acid. Any reaction between the arachidonic acid and the enzyme was stopped after two minutes at 37° C./room temperature by transferring 40 μl of reaction mix into 160 μl ELISA buffer and 25 μM indomethacin. The PGE2 formed was measured by standard ELISA technology (Cayman Chemical).

Data set [4] addresses T2, Human COX-1. The experiment in a line: Fast assay for COX-1 and COX-2 activity (PGE2 ELISA), COX-1. The conditions noted are these: Table II, pre-incubated 10 minutes at 25° C., arachidonic acid 10 μM, stopped after two minutes, pH 7.5. In kind it is biochemical. Here is the method: as §1, with “Recombinant” for “Recombinant COX-1 and COX-2 were prepared as described by Gierse et al, [J. Biochem., 305, 479-84 (1995)]. A 2.0 kb fragment containing the coding region of either human or murine COX-1 or human or murine COX-2 was cloned into a BamH1 site of the baculovirus transfer vector pVL1393 (Invitrogen) to generate the baculovirus transfer vectors for COX-1 and COX-2 in a manner similar to the method of D. R. O'Reilly et al (Baculovirus Expression Vectors: A Laboratory Manual (1992)). Recombinant”, “1555 (1987).” left out
COX activity was assayed as PGE2 formed/μg protein/time using an ELISA to detect the prostaglandin released. CHAPS-solubilized insect cell membranes containing the appropriate COX enzyme were incubated in a potassium phosphate buffer (0.05 M Potassium phosphate, pH 7.5, 2 μM phenol, 1 μM heme, 300 μM epinephrine) with the addition of 20 μl of 100 μM arachidonic acid (10 μM). Compounds were pre-incubated with the enzyme for 10 minutes at 25° C. prior to the addition of arachidonic acid. […] The PGE2 formed was measured by standard ELISA technology (Cayman Chemical).

Turning to `Cc1onc(-c2ccc(F)cc2)c1-c1ccc(S(N)(=O)=O)c(F)c1` [Example 22, 2-Fluoro-4-[3-(4-fluorophenyl)-5-methyl-4-isoxazolyl]-benzenesulfonamide], the melting point lay within 176 to 177 °C. Moreover, in data set [1], the half-maximal inhibitory concentration (IC50) was 15 nM. Moreover, the concentration for half-maximal inhibition (IC50) in data set [2] is above 100000 nM. For the same molecule, in data set [3], the 50% inhibitory concentration (IC50) stood at 5 nM. In addition, the IC50 in data set [4] is above 100000 nM.
For `CS(=O)(=O)c1ccc(-c2cscc2-c2ccccc2)cc1F` [Example 2, 3-[3-Fluoro-4-(methylsulfonyl)phenyl]-4-phenylthiophene], the melting point fell in the range of 140 to 141 °C. For the same molecule, the IC50 in data set [1] is 51 nM. Besides, in data set [2], the IC50 was above 100000 nM. Further, half-maximal inhibition in data set [3] (IC50) required 43 nM. This molecule also had an IC50 in data set [4] above 100000 nM.
`Cc1ccc(-n2nc(C(F)(F)F)cc2-c2ccc(S(C)(=O)=O)c(F)c2)cc1Cl` [Example 15, 1-(3-Chloro-4-methylphenyl)-5-[3-fluoro-4-(methylsulfonyl)phenyl]-3-(trifluoromethyl)-1H-pyrazole] registered a melting point of 144 to 145 °C. Moreover, the IC50 in data set [1] worked out at 16 nM. Besides, the half-maximal inhibitory concentration (IC50) in data set [2] is above 100000 nM. Moreover, 15 nM corresponded to half-maximal inhibition in data set [3] (IC50). Moreover, in data set [4], the midpoint of inhibition, the IC50, lay at 2360 nM.
As for `CS(=O)(=O)c1ccc(C2=C(c3ccccc3)C(=O)OC2)cc1F` [Example 24], the melting point is 161 to 162 °C. Also, in data set [1], the IC50 amounted to 15900 nM. Also, the half-maximal inhibitory concentration (IC50) in data set [2] is above 100000 nM. The same molecule returned a half-maximal inhibitory concentration (IC50) in data set [3] of 3730 nM. Moreover, the IC50 in data set [4] was above 100000 nM.
